Test results published in the supplement of paper PMC4862054.

How the values were obtained:
Details in all cases: incubation time: 72 h
BT-474 [1] = test: normalised response (% of control), CellTiter-Glo; higher = more viable cells (100 = DMSO, 0 = benzethonium chloride kill control)
In short: (§1)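 In 384-well plates holding compound at 5 concentrations in 10-fold steps over a 10,000-fold range specific to each compound, breast cancer cell lines were seeded as 20 µl suspension and incubated 72 h. CellTox Green fluorescence was measured at 485/520 nm, after which CellTiter-Glo luminescence was measured following 10 min at room temperature. Plate signals were normalised to 0.1 % DMSO (100) and a positive kill control (0), and each value is the normalised signal at a single concentration.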

BT-549 [2] = test: as above
In short: as §1

CAL-120 [3] = test: as above
In short: as §1

CAL-148 [4] = test: as above
In short: as §1

CAL-51 [5] = test: as above
In short: as §1

CAL-85-1 [6] = test: as above
In short: as §1

DU-4475 [7] = test: as above
In short: as §1

HCC1143 [8] = test: as above
In short: as §1

HCC1599 [9] = test: as above
In short: as §1

HCC1937 [10] = test: as above
In short: as §1

HDQ-P1 [11] = test: as above
In short: as §1

Hs578T [12] = test: as above
In short: as §1

MCF-10A = test: as above
In short: as §1

MDA-MB-231 [13] = test: as above
In short: as §1

MDA-MB-436 [14] = test: as above
In short: as §1

MDA-MB-453 [15] = test: as above
In short: as §1

MDA-MB-468 [16] = test: as above
In short: as §1

MFM-223 [17] = test: as above
In short: as §1

SK-BR-3 [18] = test: as above
In short: as §1

BT-474 [19] = test: normalised viability (% of control), CellTiter-Blue; higher = more viable cells (100 = DMSO, 0 = benzethonium chloride kill control)
Procedure: (§2)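 DSRT, CellTiter-Blue viability, 72 h incubation. Signal is normalised to DMSO and benzethonium chloride controls. Value is the normalised response at dose 1.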

BT-549 [20] = test: as above
Procedure: as §2

CAL-120 [21] = test: as above
Procedure: as §2

CAL-148 [22] = test: as above
Procedure: as §2

CAL-51 [23] = test: as above
Procedure: as §2

CAL-85-1 [24] = test: as above
Procedure: as §2

DU-4475 [25] = test: as above
Procedure: as §2

HCC1143 [26] = test: as above
Procedure: as §2

HCC1599 [27] = test: as above
Procedure: as §2

HCC1937 [28] = test: as above
Procedure: as §2

HDQ-P1 [29] = test: as above
Procedure: as §2

Hs578T [30] = test: as above
Procedure: as §2

MDA-MB-231 [31] = test: as above
Procedure: as §2

MDA-MB-436 [32] = test: as above
Procedure: as §2

MDA-MB-453 [33] = test: as above
Procedure: as §2

MDA-MB-468 [34] = test: as above
Procedure: as §2

MFM-223 [35] = test: as above
Procedure: as §2

SK-BR-3 [36] = test: as above
Procedure: as §2

Structure (SMILES): Cc1ccc(NC(=O)c2ccc(CN3CCN(C)CC3)cc2)cc1Nc1nc(-c2cccnc2)cs1 [Masitinib] (1 nM)
- normalised response (BT-474 [1]): 96.4%
- normalised response (BT-549 [2]): 103%
- normalised response (CAL-120 [3]): 95.8%
- normalised response (CAL-148 [4]): 101%
- normalised response (CAL-51 [5]): 98.9%
- normalised response (CAL-85-1 [6]): 98.7%
- normalised response (DU-4475 [7]): 103%
- normalised response (HCC1143 [8]): 100%
- normalised response (HCC1599 [9]): 119%
- normalised response (HCC1937 [10]): 105%
- normalised response (HDQ-P1 [11]): 100%
- normalised response (Hs578T [12]): 100%
- normalised response (MCF-10A): 96.6%
- normalised response (MDA-MB-231 [13]): 97.9%
- normalised response (MDA-MB-436 [14]): 100%
- normalised response (MDA-MB-453 [15]): 110%
- normalised response (MDA-MB-468 [16]): 114%
- normalised response (MFM-223 [17]): 102%
- normalised response (SK-BR-3 [18]): 104%
- normalised viability (BT-474 [19]): 102%
- normalised viability (BT-549 [20]): 119%
- normalised viability (CAL-120 [21]): 79.2%
- normalised viability (CAL-148 [22]): 86.5%
- normalised viability (CAL-51 [23]): 100%
- normalised viability (CAL-85-1 [24]): 92.5%
- normalised viability (DU-4475 [25]): 102%
- normalised viability (HCC1143 [26]): 89.9%
- normalised viability (HCC1599 [27]): 92.2%
- normalised viability (HCC1937 [28]): 72.1%
- normalised viability (HDQ-P1 [29]): 84.1%
- normalised viability (Hs578T [30]): 109%
- normalised viability (MDA-MB-231 [31]): 93.4%
- normalised viability (MDA-MB-436 [32]): 91.7%
- normalised viability (MDA-MB-453 [33]): 98.4%
- normalised viability (MDA-MB-468 [34]): 110%
- normalised viability (MFM-223 [35]): 96.8%
- normalised viability (SK-BR-3 [36]): 93.9%

Structure (SMILES): O=C(Nc1cccnc1)N1CCC(Cc2cccc(Oc3ccc(C(F)(F)F)cn3)c2)CC1 [PF-3845] (1 nM)
- normalised response (BT-474 [1]): 98.6%
- normalised response (BT-549 [2]): 107%
- normalised response (CAL-120 [3]): 107%
- normalised response (CAL-148 [4]): 114%
- normalised response (CAL-51 [5]): 89.8%
- normalised response (CAL-85-1 [6]): 101%
- normalised response (DU-4475 [7]): 95.8%
- normalised response (HCC1143 [8]): 108%
- normalised response (HCC1599 [9]): 95.8%
- normalised response (HCC1937 [10]): 98.4%
- normalised response (HDQ-P1 [11]): 103%
- normalised response (Hs578T [12]): 106%
- normalised response (MCF-10A): 113%
- normalised response (MDA-MB-231 [13]): 110%
- normalised response (MDA-MB-436 [14]): 105%
- normalised response (MDA-MB-453 [15]): 117%
- normalised response (MDA-MB-468 [16]): 97.9%
- normalised response (MFM-223 [17]): 110%
- normalised response (SK-BR-3 [18]): 113%
- normalised viability (BT-474 [19]): 70.3%
- normalised viability (BT-549 [20]): 111%
- normalised viability (CAL-120 [21]): 86.7%
- normalised viability (CAL-148 [22]): 106%
- normalised viability (CAL-51 [23]): 98.4%
- normalised viability (CAL-85-1 [24]): 89%
- normalised viability (DU-4475 [25]): 92.1%
- normalised viability (HCC1143 [26]): 92.8%
- normalised viability (HCC1599 [27]): 98.9%
- normalised viability (HCC1937 [28]): 91.6%
- normalised viability (HDQ-P1 [29]): 145%
- normalised viability (Hs578T [30]): 135%
- normalised viability (MDA-MB-231 [31]): 114%
- normalised viability (MDA-MB-436 [32]): 99.8%
- normalised viability (MDA-MB-453 [33]): 103%
- normalised viability (MDA-MB-468 [34]): 104%
- normalised viability (MFM-223 [35]): 91.9%
- normalised viability (SK-BR-3 [36]): 123%

Structure (SMILES): Cc1[nH]c2ccccc2c1CCNCc1ccc(/C=C/C(=O)NO)cc1 [Panobinostat] (0.1 nM)
- normalised response (BT-474 [1]): 101%
- normalised response (BT-549 [2]): 99.5%
- normalised response (CAL-120 [3]): 107%
- normalised response (CAL-148 [4]): 105%
- normalised response (CAL-51 [5]): 130%
- normalised response (CAL-85-1 [6]): 102%
- normalised response (DU-4475 [7]): 99.7%
- normalised response (HCC1143 [8]): 100%
- normalised response (HCC1599 [9]): 98.6%
- normalised response (HCC1937 [10]): 94.7%
- normalised response (HDQ-P1 [11]): 98.2%
- normalised response (Hs578T [12]): 91.8%
- normalised response (MCF-10A): 96.2%
- normalised response (MDA-MB-231 [13]): 105%
- normalised response (MDA-MB-436 [14]): 98.9%
- normalised response (MDA-MB-453 [15]): 103%
- normalised response (MDA-MB-468 [16]): 94.4%
- normalised response (MFM-223 [17]): 99.5%
- normalised response (SK-BR-3 [18]): 95.9%
- normalised viability (BT-474 [19]): 102%
- normalised viability (BT-549 [20]): 108%
- normalised viability (CAL-120 [21]): 102%
- normalised viability (CAL-148 [22]): 106%
- normalised viability (CAL-51 [23]): 110%
- normalised viability (CAL-85-1 [24]): 104%
- normalised viability (DU-4475 [25]): 111%
- normalised viability (HCC1143 [26]): 104%
- normalised viability (HCC1599 [27]): 116%
- normalised viability (HCC1937 [28]): 104%
- normalised viability (HDQ-P1 [29]): 100%
- normalised viability (Hs578T [30]): 100%
- normalised viability (MDA-MB-231 [31]): 109%
- normalised viability (MDA-MB-436 [32]): 109%
- normalised viability (MDA-MB-453 [33]): 108%
- normalised viability (MDA-MB-468 [34]): 106%
- normalised viability (MFM-223 [35]): 104%
- normalised viability (SK-BR-3 [36]): 97.2%

Structure (SMILES): COCC1(CO)C(=O)C2CCN1CC2 (stereo not drawn) [Prima-1 Met] (1 nM)
- normalised response (BT-474 [1]): 102%
- normalised response (BT-549 [2]): 104%
- normalised response (CAL-120 [3]): 97.1%
- normalised response (CAL-148 [4]): 107%
- normalised response (CAL-51 [5]): 81.5%
- normalised response (CAL-85-1 [6]): 101%
- normalised response (DU-4475 [7]): 102%
- normalised response (HCC1143 [8]): 98.8%
- normalised response (HCC1599 [9]): 101%
- normalised response (HCC1937 [10]): 95.5%
- normalised response (HDQ-P1 [11]): 108%
- normalised response (Hs578T [12]): 99.1%
- normalised response (MCF-10A): 108%
- normalised response (MDA-MB-231 [13]): 101%
- normalised response (MDA-MB-436 [14]): 102%
- normalised response (MDA-MB-453 [15]): 116%
- normalised response (MDA-MB-468 [16]): 107%
- normalised response (MFM-223 [17]): 104%
- normalised response (SK-BR-3 [18]): 109%
- normalised viability (BT-474 [19]): 96.1%
- normalised viability (BT-549 [20]): 106%
- normalised viability (CAL-120 [21]): 86.9%
- normalised viability (CAL-148 [22]): 93.2%
- normalised viability (CAL-51 [23]): 90.5%
- normalised viability (CAL-85-1 [24]): 90.5%
- normalised viability (DU-4475 [25]): 120%
- normalised viability (HCC1143 [26]): 91.1%
- normalised viability (HCC1599 [27]): 123%
- normalised viability (HCC1937 [28]): 74.9%
- normalised viability (HDQ-P1 [29]): 83%
- normalised viability (Hs578T [30]): 114%
- normalised viability (MDA-MB-231 [31]): 89.7%
- normalised viability (MDA-MB-436 [32]): 104%
- normalised viability (MDA-MB-453 [33]): 93.9%
- normalised viability (MDA-MB-468 [34]): 108%
- normalised viability (MFM-223 [35]): 98.7%
- normalised viability (SK-BR-3 [36]): 104%
